Test results as given in US8957062B2, “Substituted cyclopropyl compounds, compositions containing such compounds and methods of treatment” (Merck Sharp & Dohme Corp., priority 2011, dated 2015).
Read-outs that look alike come from different tables or passages of the source.

Biological target: T1, human GPR119 (Homo sapiens, UniProt Q8TDV5)
T1 sequence (Q8TDV5 1-308 limits assumed): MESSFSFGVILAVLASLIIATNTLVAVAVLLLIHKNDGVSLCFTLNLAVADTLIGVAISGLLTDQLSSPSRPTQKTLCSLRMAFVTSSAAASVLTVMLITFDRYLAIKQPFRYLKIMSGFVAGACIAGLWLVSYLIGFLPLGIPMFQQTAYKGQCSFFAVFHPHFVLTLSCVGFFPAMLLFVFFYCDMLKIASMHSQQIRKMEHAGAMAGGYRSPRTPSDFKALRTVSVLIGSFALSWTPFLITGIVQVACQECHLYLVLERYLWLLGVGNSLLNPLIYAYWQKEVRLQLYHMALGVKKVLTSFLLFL
Experiment: Measurement of GPR119 signaling (cAMP assay) in cells stably transfected with human GPR119
Assay type: cell-based
Settings: cAMP stimulation
Experimental: Measurement of GPR119 Signaling (Cyclic AMP (cAMP) Assay)
The adenylate cyclase assay was constructed following the LANCE™ cAMP Kit (Perkin Elmer, AD0264) instructions.
The reaction was stopped by incubating with the supplied detection buffer containing the europium chelate of the Eu-SA/Biotin-cAMP tracer for 3 hours. The assay was performed in duplicate in a 384 well plate for duplicate plates and fluorescence was measured at 665 nm. Basal activity was determined using a DMSO control and maximum response was defined as cAMP stimulation produced by an internal agonist control. Standard cAMP concentrations were assayed concurrently for conversion of fluorescence signal to cAMP level. The data was analyzed using 4-parameter curve fit in Microsoft Excel.
Measurement of GPR119 Signaling (cAMP Homogenous Time Resolved Fluorescence (HTRF) Assay)
Chinese hamster ovary (CHO) cell lines stably transfected with the permissive guanine nucleotide binding protein alpha 15 (Gα15) and murine GPR119 were maintained in DMEM media containing FBS, penicillin-streptomycin, puromycin, and G418 (geneticin). […] Agonist activation of the GPR119 receptor was measured in receptor transfected cells described above, treated with compounds of this invention, using a commercial homogenous time resolved fluorescence (HTRF) kit for measurement of cAMP (CisBio, Bedford, Mass.). The assay was performed in 96-well half-volume plates (murine) or 384-well plates (human) following the manufacturers instructions. Briefly, suspended cells were incubated with a dose titration of test compound at RT for 60 min, lysed, and incubated with HTRF reagents for an additional 60 min. The plate was read using an Envision multilabel reader (Perkin Elmer) adjusted to read time resolved fluorescence and the cAMP concentrations were extrapolated from a cAMP calibration curve. […] The concentration of test compound required to stimulate a half-maximal response (EC50), and efficacy as compared to an internal agonist control, was determined from a sigmoidal 4-parameter curve fit of the resulting plot of normalized activity versus compound concentration.

[1] = table column, human GPR119, read-out: GPR119 Human EC50
[2] = stated in the example text, human GPR119, read-out: GPR119 Human EC50

Structure (SMILES) | EC50 [1] | further results
CS(=O)(=O)c1ccc(OCC[C@@H]2C[C@@H]2C2CCN(C(=O)CC3CCCC3)CC2)cc1F [Example 93] | 4.6 nM | 
O=C(Cc1ccc(OCC[C@@H]2C[C@@H]2C2CCN(C(=O)OC3CCC3)CC2)cc1F)N1CCC1 [Example 71] |  | EC50 (read-out: GPR119 HumC EC50): 1.4 nM
CC(C)COC(=O)N1CCC([C@H]2C[C@H]2CCOc2ccc(-n3cnnn3)cc2)CC1 [Example 1, isobutyl 4-((1R,2S)-2-(2-(4-(1H-tetrazol-1-yl)phenoxy)ethyl)cyclopropyl)piperidine-1-carboxylate] |  | EC50 [2]: 1.6 nM
CC1(OC(=O)N2CCC([C@H]3C[C@H]3CCOc3ccc(-n4cncn4)cn3)CC2)CC1 [Example 34, 1-methylcyclopropyl 4-[(1R,2S)-2-(2-{[5-(1H-1,2,4-triazol-1-yl)pyridin-2-yl]oxy}ethyl)cyclopropyl]piperidine-1-carboxylate] |  | EC50 [2]: 0.88 nM
O=C(CCC(F)(F)F)N1CCC([C@H]2C[C@H]2CCOc2ccc(-n3cnnn3)cc2)CC1 [Example 78] | 8.5 nM | 
CCS(=O)(=O)c1ccc(OCC[C@@H]2C[C@@H]2C2CCN(c3nc(C(C)C)no3)CC2)cc1F [Example 28] | 1.8 nM | 
CS(=O)(=O)c1ccc(OCC[C@@H]2C[C@@H]2C2CCN(C(=O)CC3CCC3)CC2)cc1F [Example 92] | 10 nM | 
Cc1cc(OCC[C@@H]2C[C@@H]2C2CCN(c3nc(C(C)C)no3)CC2)ccc1CC(=O)N(C)C [Example 106] |  | EC50 (read-out: GPR119 HumC EC50): 3.4 nM
CC(C)(CC(=O)N1CCC([C@H]2C[C@H]2CCOc2ccc(-n3cnnn3)cc2)CC1)C1CC1 [Example 80] | 4 nM | 
COCc1noc(N2CCC([C@@H]3C[C@@H]3CCOc3ccc(S(C)(=O)=O)cc3F)CC2)n1 (stereo in doubt) [Example 220, 4-((1S,2R)-2-{2-[2-fluoro-4-(methylsulfonyl)phenoxy]ethyl}cyclopropyl)-1-[3-(methoxymethyl)-1,2,4-oxadiazol-5-yl]piperidine] |  | EC50 [2]: 0.9 nM
CC(C)(C)OC(=O)N1CCC([C@H]2C[C@H]2CCOc2ccc(-n3cnnn3)cc2)CC1 [Example 5] | 7 nM | 
CC1(OC(=O)N2CCC([C@H]3C[C@H]3CCOc3ccc(S(C)(=O)=O)cn3)CC2)CC1 [Example 24] | 4.2 nM | 
CC(C)CC(=O)N1CCC([C@H]2C[C@H]2CCOc2ccc(-n3cnnn3)cc2)CC1 [Example 79] | 7.7 nM | 
CC(C)c1noc(N2CCC([C@H]3C[C@H]3CCOc3cc(F)c(C(=O)C4CC4)c(F)c3)CC2)n1 [Example 120] | 0.1 nM | 
COCc1noc(N2CCC([C@H]3C[C@H]3CCOc3ccc(CC(=O)N(C)C)c(C)c3)CC2)n1 [Example 107] |  | EC50 (read-out: GPR119 HumC EC50): 5.2 nM
CC(C)c1noc(N2CCC([C@H]3C[C@H]3CCOc3ccc(S(C)(=O)=O)nc3)CC2)n1 [Example 130] | 10.6 nM | 
CC(C)c1noc(N2CCC([C@H]3C[C@H]3CCOc3cc(F)c(CC(=O)N4CCC4)c(F)c3)CC2)n1 [Example 109] |  | EC50 (read-out: GPR119 HumC EC50): 0.24 nM
O=C(c1c(F)cc(OCC[C@@H]2C[C@@H]2C2CCN(C(=O)OCc3ccccc3)CC2)cc1F)C1CC1 [Example 53] | 18 nM | 
COC1CN(C(=O)Cc2c(F)cc(OCC[C@@H]3C[C@@H]3C3CCN(c4nc(C(C)C)no4)CC3)cc2F)C1 [Example 113] |  | EC50 (read-out: GPR119 HumC EC50): 0.33 nM
CC(C)c1noc(N2CCC([C@H]3C[C@H]3CCOc3ccc(CC(=O)N4CCC4)cc3)CC2)n1 [Example 128] | 1.8 nM | 
CCc1nc(N2CCC([C@H]3C[C@H]3CCOc3ccc(S(C)(=O)=O)cn3)CC2)no1 [Example 233, 2-(2-{(1S,2R)-2-[1-(5-ethyl-1,2,4-oxidiazol-5-yl)piperidin-4-yl]cyclopropyl}ethoxy)-5-(methylsulfonyl)pyridine] |  | EC50 [2]: 9.2 nM
CCCC(=O)c1c(F)cc(OCC[C@@H]2C[C@@H]2C2CCN(c3nc(C(C)C)no3)CC2)cc1F [Example 121] | 0.1 nM | 
CC(C)c1noc(N2CCC([C@H]3C[C@H]3CCOc3ccc(CC(=O)N4CCC4)c(C#N)c3)CC2)n1 [Example 105] |  | EC50 (read-out: GPR119 HumC EC50): 2 nM
CC(C)(C)OC(=O)N1CCC([C@H]2C[C@H]2CCOc2cc(F)c(C(=O)C3CC3)c(F)c2)CC1 [Example 52] | 0.2 nM | 
CC1(OC(=O)N2CCC([C@H]3C[C@H]3CCOc3ccc(-n4cnnn4)cc3)CC2)CCC1 [Example 10] | 0.3 nM | 

More lines, main results first:

EC50 [1] | Structure (SMILES) | further results
8.7 nM | CC(C)c1noc(N2CCC([C@H]3C[C@H]3CCOc3ccc(CC(=O)N4Cc5nnc(C(F)(F)F)n5C(C)C4)c(F)c3)CC2)n1 (stereo partly shown) [Example 182] | 
7.9 nM | CCOCc1nc(N2CCC([C@H]3C[C@H]3CCOc3ccc(S(C)(=O)=O)cn3)CC2)no1 [Example 246] | 
3.6 nM | COCc1noc(N2CCC([C@H]3C[C@H]3CCOc3ccc(CC(=O)N4CCC[C@H]4C(F)(F)F)c(F)c3)CC2)n1 [Example 204] | 
3.8 nM | Cc1cc(CC(=O)N2CC(F)(F)C2)cnc1OCC[C@@H]1C[C@@H]1C1CCN(c2nc(C(C)C)no2)CC1 [Example 260] | 
6.4 nM | CC(C)c1noc(N2CCC([C@H]3C[C@H]3CCOc3ccc(CC(=O)N4CC(n5ccnc5)C4)c(F)c3)CC2)n1 [Example 188] | 
0.88 nM | CC(C)c1noc(N2CCC([C@H]3C[C@H]3CCOc3ccc(CC(=O)N(C)C4COC4)c(F)c3)CC2)n1 [Example 172] | 
19 nM | COC1CN(C(=O)Cc2cnc(OCC[C@@H]3C[C@@H]3C3CCN(c4nc(C(C)C)no4)CC3)c(C)c2)C1 [Example 261] | 
5.7 nM | CC(C)c1noc(N2CCC([C@H]3C[C@H]3CCOc3ccc(CC(=O)N4CCn5c(nnc5C5CC5)C4)c(F)c3)CC2)n1 [Example 176] | 
18 nM | CS(=O)(=O)c1ccc(OCC[C@@H]2C[C@@H]2C2CCN(c3noc(CCC(F)(F)F)n3)CC2)nc1 [Example 237] | 
4.2 nM | Cc1nc2c([nH]1)CN(C(=O)Cc1ccc(OCC[C@@H]3C[C@@H]3C3CCN(c4nc(C(C)C)no4)CC3)cc1F)C2 [Example 192] | 
4.8 nM | CS(=O)(=O)c1ccc(OCC[C@@H]2C[C@@H]2C2CCN(c3nc(C4CCC4)no3)CC2)nc1 [Example 212] | 
1.6 nM | COCc1noc(N2CCC([C@H]3C[C@H]3CCOc3ccc(-n4cnnn4)cn3)CC2)n1 [Example 230] | 
3.2 nM | CC(C)c1noc(N2CCC([C@H]3C[C@H]3CCOc3ccc(CC(=O)N4CCc5cncnc5C4)c(F)c3)CC2)n1 [Example 175] | 
3.2 nM | CCc1noc(N2CCC([C@H]3C[C@H]3CCOc3ccc(S(C)(=O)=O)cn3)CC2)n1 [Example 214] | 
0.9 nM | COCc1noc(N2CCC([C@H]3C[C@H]3CCOc3ccc(S(C)(=O)=O)c(F)c3)CC2)n1 [Example 222] | 
7.8 nM | CS(=O)(=O)c1ccc(OCC[C@@H]2C[C@@H]2C2CCN(c3nc(COCC(F)(F)F)no3)CC2)nc1 [Example 217] | 
5.8 nM | COC(C)c1noc(N2CCC([C@H]3C[C@H]3CCOc3ccc(S(C)(=O)=O)cn3)CC2)n1 (stereo partly shown) [Example 215] | 
7.7 nM | CC(C)c1noc(N2CCC([C@H]3C[C@H]3CCOc3ccc(CC(=O)N(C)CC4CCC(=O)N4C)c(F)c3)CC2)n1 (stereo partly shown) [Example 169] | 
